Measurements published in patent US20260049068A1, “Substituted Tetrazolyl Compounds Useful as T Cell Activators” (BRISTOL-MYERS SQUIBB COMPANY, priority 2022, published 2026).

Columns and labels:
DGKα-YFP in Jurkat cells = DGKα-YFP in Jurkat cells (Homo sapiens (Human), UniProt P23743); test: In vitro DGKα translocation assay; assay type: cell-based; conditions: 1 hour at 37° C., top concentration 10 μM, read-out: DGKalpha Translocation EC50
Source text: Jurkat cells were transduced with lentiviral constructs overexpressing DGKα-YFP (N-terminal tagged), selected by puromycin, and were FACs sorted to establish stable lines expressing each isoform (Jurkat-DGKα-YFP=BXA-212700-01-001, Jurkat-DGKz-YFP=BXA-212701-01-001). Cell lines were maintained in growth media (RPMI supplemented with 10% FBS and pen/strep). All translocation assays were run in assay media (RPMI supplemented with 10% FBS and no antibiotics).
For translocation assays cells were plated onto Perkin Elmer CellCarrier-384 Ultra Microplates (Perkin Elmer cat #6057500) at a density of 30,000 cells/well, in a volume of 40 μL of assay media. Compounds were then transferred to the cells by an Echo Acoustic Liquid Handler (Echo 655). […] Treated cells were then incubated at 37° C. for 1 hour. Cells were then fixed with 4% formaldehyde (Thermo cat #28906) for 15 minutes, centrifuged briefly to increase cell retention (250 rpm for 5 minutes), and then washed 3× with 50 μL PBS. Cells were then stained with Hoechst, and washed 2× with 50 ul PBS. Next, 50 μL PBS was added to each well, plates were sealed, and plates were imaged on an Opera Phenix High Content screening system. Imaging was done with the 40× water objective. The YFP channel was set at 100% power for […], 10 regions/well were imaged and analyzed. Data analysis was done with Columbus Image Analysis software (Perk-in Elmer).

[1] = molecular target: Near full length human DGKα(S9-S727) (Homo sapiens (Human), UniProt P23743); test: DGKα (Near Full Length) ADP Glo assay; assay type: biochemical; conditions: extruded liposomes 5% or 10% DAG, 150 μM ATP, 5 nM enzyme; read-out: Near Full Length DGKalpha ADPGLO IC50
Chain of Near full length human DGKα(S9-S727) (P23743 9-727): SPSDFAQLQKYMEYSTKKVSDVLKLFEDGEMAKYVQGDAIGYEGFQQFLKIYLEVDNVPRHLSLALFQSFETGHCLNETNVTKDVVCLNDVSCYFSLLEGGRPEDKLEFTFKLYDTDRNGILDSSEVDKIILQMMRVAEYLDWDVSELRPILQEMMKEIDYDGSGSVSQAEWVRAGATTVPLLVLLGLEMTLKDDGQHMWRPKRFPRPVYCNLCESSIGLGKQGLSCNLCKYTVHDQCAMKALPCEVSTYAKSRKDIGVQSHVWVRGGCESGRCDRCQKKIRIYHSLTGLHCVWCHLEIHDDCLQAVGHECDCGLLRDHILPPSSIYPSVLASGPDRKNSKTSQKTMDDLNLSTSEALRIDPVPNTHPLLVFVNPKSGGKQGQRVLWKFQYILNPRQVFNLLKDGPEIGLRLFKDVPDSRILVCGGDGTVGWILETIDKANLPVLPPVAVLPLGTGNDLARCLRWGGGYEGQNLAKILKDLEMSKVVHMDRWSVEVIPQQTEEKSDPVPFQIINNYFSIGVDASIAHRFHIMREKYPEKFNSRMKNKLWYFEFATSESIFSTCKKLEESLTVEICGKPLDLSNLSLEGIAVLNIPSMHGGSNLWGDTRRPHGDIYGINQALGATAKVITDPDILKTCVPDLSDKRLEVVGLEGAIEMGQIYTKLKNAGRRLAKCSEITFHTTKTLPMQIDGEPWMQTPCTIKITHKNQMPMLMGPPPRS
Protocol: The reactions were carried out at 150 μM ATP.
Luminescence was recorded using an EnVision microplate reader.

Full length human DGKα = Full length human DGKα (Homo sapiens (Human), UniProt P23743);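 further: ADP-Glo luminescence assay of ADP formed by 5 nM full-length DGKα on extruded PS/DAG/PC liposomes with 150 µM ATP, 1 h reaction, 11-point inhibitor titration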
Chain of Full length human DGKα (P23743 other isoform, or with tags, fused parts or gaps): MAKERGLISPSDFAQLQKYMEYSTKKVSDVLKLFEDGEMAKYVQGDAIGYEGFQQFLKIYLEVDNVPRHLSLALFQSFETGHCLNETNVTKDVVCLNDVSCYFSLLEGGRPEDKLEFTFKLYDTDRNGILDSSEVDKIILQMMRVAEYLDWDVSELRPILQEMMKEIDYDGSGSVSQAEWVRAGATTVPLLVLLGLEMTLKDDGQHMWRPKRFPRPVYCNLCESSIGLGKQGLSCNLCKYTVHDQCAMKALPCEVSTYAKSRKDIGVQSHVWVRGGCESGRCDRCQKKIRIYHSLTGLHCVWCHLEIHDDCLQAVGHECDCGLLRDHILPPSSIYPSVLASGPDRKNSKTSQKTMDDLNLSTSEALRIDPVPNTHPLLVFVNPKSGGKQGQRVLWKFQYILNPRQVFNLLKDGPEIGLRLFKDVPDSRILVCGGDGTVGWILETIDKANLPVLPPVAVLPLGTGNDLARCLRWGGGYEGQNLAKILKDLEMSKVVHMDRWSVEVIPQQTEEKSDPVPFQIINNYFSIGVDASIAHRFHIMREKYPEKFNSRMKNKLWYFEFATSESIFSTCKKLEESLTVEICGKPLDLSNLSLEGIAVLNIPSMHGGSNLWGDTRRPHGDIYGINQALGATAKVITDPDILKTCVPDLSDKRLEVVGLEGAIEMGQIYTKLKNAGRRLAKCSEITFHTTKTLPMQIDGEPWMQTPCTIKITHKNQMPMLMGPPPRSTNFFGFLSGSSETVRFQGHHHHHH
Protocol: The DGKα (Full Length and Near Full Length) ADP Glo assays were performed using an extruded liposome prep at either 5% DAG or 10% DAG. The Enzymatic reactions were carried out in 50 mM MOPS pH 7.5, 100 mM NaCl, 10 mM MgCl2, 1 μM CaCl2, and 1 mM DTT (assay buffer). The lipid substrate concentrations were 1.9 mM PS, either 0.25 mM DAG (5% liposome prep) or 0.5 mM DAG (10% liposome prep), and 2.7 mM PC for the extruded liposome reactions. The reactions were carried out at 150 μM ATP. The enzyme concentrations for the DGKα(Near Full Length) and DGKα(FL) were 5 nM.
The compound inhibition studies were carried out as follows: 25 nL droplets of each test compound (11 point, 3-fold dilution series for each compound) solubilized in DMSO were transferred to wells of a white 1536 well plate (Corning 3725). A 5 mL enzyme/substrate (substrate being the 5× or 10× liposome preparation) solution at 2× final reaction concentrations was prepared by combining 5 ml of the extruded liposome preparation with 10 nM (2× final) DGKα(Near Full Length) or DGKα(Full Length) prepared as described below) and incubated at room temperature for 10 minutes. Next, 1 μL of the 2× enzyme/substrate solution was added to wells containing the test compound and reactions were initiated with the addition of 1 μL 300 uM ATP. Substrate only was added to DMSO only wells for background measurements. The reactions were allowed to proceed for 1 hr, after which 2 μL Glo Reagent (Promega V9101) was added and incubated for 40 minutes. Next, 4 μL Kinase Detection Reagent was added and incubated for 30 minutes. Luminescence was recorded using an EnVision microplate reader. […] The compounds were evaluated at 11 concentrations to determine IC50.

Chain of DGKα-YFP in Jurkat cells (P23743 whole entry, canonical isoform): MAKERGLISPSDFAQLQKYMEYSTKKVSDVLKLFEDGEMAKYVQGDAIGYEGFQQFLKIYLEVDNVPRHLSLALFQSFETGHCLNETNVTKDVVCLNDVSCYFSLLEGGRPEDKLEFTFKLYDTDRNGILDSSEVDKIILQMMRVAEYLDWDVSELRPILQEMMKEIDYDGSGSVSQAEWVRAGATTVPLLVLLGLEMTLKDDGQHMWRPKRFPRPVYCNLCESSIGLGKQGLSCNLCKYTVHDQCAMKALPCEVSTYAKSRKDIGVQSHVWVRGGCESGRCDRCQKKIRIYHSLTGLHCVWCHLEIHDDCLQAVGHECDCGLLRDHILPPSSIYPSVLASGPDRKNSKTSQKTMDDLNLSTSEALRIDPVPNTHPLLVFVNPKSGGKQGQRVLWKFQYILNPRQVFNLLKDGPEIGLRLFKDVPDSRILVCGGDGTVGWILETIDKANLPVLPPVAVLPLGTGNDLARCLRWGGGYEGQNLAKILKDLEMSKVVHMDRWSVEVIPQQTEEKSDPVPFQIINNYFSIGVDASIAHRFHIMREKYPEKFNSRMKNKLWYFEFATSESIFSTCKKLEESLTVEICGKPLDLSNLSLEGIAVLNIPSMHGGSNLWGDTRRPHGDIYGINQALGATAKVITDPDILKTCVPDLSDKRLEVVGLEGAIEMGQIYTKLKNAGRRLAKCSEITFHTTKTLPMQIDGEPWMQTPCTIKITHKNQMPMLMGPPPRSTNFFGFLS

| EC50 (DGKα-YFP in Jurkat cells) | IC50 [1] | IC50 (Full length human DGKα) | SMILES |
| --- | --- | --- | --- |
| 0.3 µM | – | – | CC1CCC(N(C)Cc2nnnn2-c2cccc([N+](=O)[O-])c2)CC1 (stereo not drawn) [Example 2, N,4-dimethyl-N-((1-(3-nitrophenyl)-1H-tetrazol-5-yl)methyl)cyclohexan-1-amine] |
| 1.2 µM | 1.4 µM | 1.1 µM | CCCCN(Cc1nnnn1-c1ccc(Cl)c(C#N)c1)C1CCCCC1 [Example 5, 5-(5-((butyl(cyclohexyl)amino)methyl)-1H-tetrazol-1-yl)-2-chlorobenzonitrile] |
| > 10 µM | 3.4 µM | 4.7 µM | N#Cc1cc(-n2nnnc2CN(CCO)C2CCCCC2)ccc1Cl [Example 7, 2-chloro-5-(5-((cyclohexyl(2-hydroxyethyl)amino)methyl)-1H-tetrazol-1-yl)benzonitrile] |
| 0.63 µM | 0.24 µM | 0.25 µM | N#Cc1cc(-n2nnnc2CN(CC2CC2)C2CCCCC2)ccc1Cl [Example 10, 2-chloro-5-(5-((cyclohexyl(cyclopropylmethyl)amino)methyl)-1H-tetrazol-1-yl)benzonitrile] |
| 0.49 µM | – | – | CN(Cc1nnnn1-c1cc(C#N)cc([N+](=O)[O-])c1)C1CCCCC1 [Example 27, 3-(5-((cyclohexyl(methyl)amino)methyl)-1H-tetrazol-1-yl)-5-nitrobenzonitrile] |
| > 10 µM | – | – | CN(Cc1nnnn1-c1ccc(Cl)cc1C#N)C1CCCCC1 [Example 30, 5-chloro-2-(5-((cyclohexyl(methyl)amino)methyl)-1H-tetrazol-1-yl)benzonitrile] |
| – | – | > 240 µM | COC(=O)c1cccc(-n2nnnc2CN(C)C2CCCCC2)c1 [Example 33, methyl 3-(5-((cyclohexyl(methyl)amino)methyl)-1H-tetrazol-1-yl)benzoate] |
| – | – | 72 µM | O=[N+]([O-])c1cccc(-n2nnnc2CN(CCO)C2CCCCC2)c1 [Example 43, 2-(cyclohexyl((1-(3-nitrophenyl)-1H-tetrazol-5-yl)methyl)amino)ethan-1-ol] |
| – | – | 12 µM | CN(Cc1nnnn1-c1cccc(Br)c1)C1CCCCC1 [Example 45, N-((1-(3-bromophenyl)-1H-tetrazol-5-yl)methyl)-N-methylcyclohexanamine] |
| – | – | 17 µM | CN(Cc1nnnn1-c1ccc(Cl)c(C(F)(F)F)c1)C1CCCCC1 [Example 49, N-((1-(4-chloro-3-(trifluoromethyl)phenyl)-1H-tetrazol-5-yl)methyl)-N-methylcyclohexanamine] |
| – | – | 13 µM | CCOC(=O)C1CCC(N(Cc2nnnn2-c2ccc(Cl)c(C#N)c2)C2CC2)CC1 (stereo not drawn) [Example 51, ethyl 4-(((1-(4-chloro-3-cyanophenyl)-1H-tetrazol-5-yl)methyl)(cyclopropyl)amino) cyclohexane-1-carboxylate] |
| – | – | 15 µM | CCCN(Cc1nnnn1-c1ccc(Cl)c(C#N)n1)C1CCCCC1 [Example 53, 3-chloro-6-(5-((cyclohexyl(propyl)amino)methyl)-1H-tetrazol-1-yl)picolinonitrile] |
| – | – | 11 µM | CCOC(=O)C1CCC(N(Cc2nnnn2-c2ccc(Cl)c(C#N)n2)C2CC2)CC1 (stereo not drawn) [Example 56, ethyl 4-(((1-(5-chloro-6-cyanopyridin-2-yl)-1H-tetrazol-5-yl)methyl)(cyclopropyl)amino) cyclohexane-1-carboxylate] |
| – | – | 180 µM | C[C@]1(O)CC[C@@H](N(Cc2nnnn2-c2ccc(Cl)c(C#N)n2)C2CC2)CC1 [Example 59, 3-chloro-6-(5-((cyclopropyl((1s,4s)-4-hydroxy-4-methylcyclohexyl)amino)methyl)-1H-tetrazol-1-yl)picolinonitrile] |
| – | – | 67 µM | CC(C)N(C)Cc1nnnn1-c1ccc(Cl)c(C#N)n1 [Example 60, 3-chloro-6-(5-((isopropyl(methyl)amino)methyl)-1H-tetrazol-1-yl)picolinonitrile] |
| – | – | 24 µM | CC(C)CN(C)Cc1nnnn1-c1ccc(Cl)c(C#N)n1 [Example 61, 3-chloro-6-(5-((isobutyl(methyl)amino)methyl)-1H-tetrazol-1-yl)picolinonitrile] |
| – | – | 110 µM | N#Cc1nc(-n2nnnc2CN(CCO)C2CCCCC2)ccc1Cl [Example 62, 3-chloro-6-(5-((cyclohexyl(2-hydroxyethyl)amino)methyl)-1H-tetrazol-1-v) picolinonitrile] |
| – | – | 15 µM | CCCCN(Cc1nnnn1-c1ccc(Cl)c(C#N)n1)C1CCCCC1 [Example 63, 6-(5-((butyl(cyclohexyl)amino)methyl)-1H-tetrazol-1-yl)-3-chloropicolinonitrile] |

The remaining lines, values behind:

| SMILES | EC50 (DGKα-YFP in Jurkat cells) | IC50 [1] | IC50 (Full length human DGKα) |
| --- | --- | --- | --- |
| CN(Cc1nnnn1-c1ccc(C(F)(F)F)c(C#N)c1)C1CCCCC1 [Example 4, 5-(5-((cyclohexyl(methyl)amino)methyl)-1H-tetrazol-1-yl)-2-(trifluoromethyl)benzonitrile] | 0.82 µM | 0.28 µM | 0.027 µM |
| C=CCN(Cc1nnnn1-c1ccc(Cl)c(C#N)c1)C1CCCCC1 [Example 6, 5-(5-((allyl(cyclohexyl)amino)methyl)-1H-tetrazol-1-yl)-2-chlorobenzonitrile] | 0.19 µM | 0.1 µM | 0.11 µM |
| CCCN(Cc1nnnn1-c1ccc(Cl)c(C#N)c1)C1CCCCC1 [Example 8, 2-chloro-5-(5-((cyclohexyl(propyl)amino)methyl)-1H-tetrazol-1-yl)benzonitrile] | 0.35 µM | 2.1 µM | 1.5 µM |
| CC(C)CN(C)Cc1nnnn1-c1ccc(Cl)c(C#N)c1 [Example 9, 2-chloro-5-(5-((isobutyl(methyl)amino)methyl)-1H-tetrazol-1-yl)benzonitrile] | 1.2 µM | 3.2 µM | 5.3 µM |
| CC(C)N(C)Cc1nnnn1-c1ccc(Cl)c(C#N)c1 [Example 11, 2-chloro-5-(5-((isopropyl(methyl)amino)methyl)-1H-tetrazol-1-yl)benzonitrile] | > 10 µM | 8.6 µM | 8.8 µM |
| CC(C)N(Cc1nnnn1-c1ccc(Cl)c(C#N)c1)C1CCCCC1 [Example 12, 2-chloro-5-(5-((cyclohexyl(isopropyl)amino)methyl)-1H-tetrazol-1-yl)benzonitrile] | 1.7 µM | 11 µM | 7.9 µM |
| C=CCN(Cc1nnnn1-c1ccc(Cl)c(C#N)n1)C1CCCCC1 [Example 17, 6-(5-((allyl (cyclohexyl)amino)methyl)-1H-tetrazol-1-yl)-3-chloropicolinonitrile] | 0.47 µM | – | – |
| COc1ccc(-n2nnnc2CN(C)C2CCCCC2)cc1 [Example 31, N-((1-(4-methoxyphenyl)-1H-tetrazol-5-yl)methyl)-N-methylcyclohexanamine] | – | – | 56 µM |
| CN(Cc1nnnn1-c1ccc([N+](=O)[O-])cc1)C1CCCCC1 [Example 32, N-methyl-N-((1-(4-nitrophenyl)-1H-tetrazol-5-yl)methyl)cyclohexanamine] | – | – | 13 µM |
| CN(Cc1nnnn1-c1cccc(C(=O)O)c1)C1CCCCC1 [Example 34, 3-(5-((cyclohexyl (methyl)amino)methyl)-1H-tetrazol-1-yl)benzoic acid] | – | – | > 81 µM |
| Cc1cccc(-n2nnnc2CN(C)C2CCCCC2)c1 [Example 35, N-methyl-N-((1-(m-tolyl)-1H-tetrazol-5-yl)methyl)cyclohexanamine] | – | – | 50 µM |
| CN(Cc1nnnn1-c1cccc(Cl)c1)C1CCCCC1 [Example 36, N-((1-(3-chlorophenyl)-1H-tetrazol-5-yl)methyl)-N-methylcyclohexanamine] | – | – | 11 µM |
| CN(Cc1nnnn1-c1ccc(F)nc1)C1CCCCC1 [Example 46, N-((1-(6-fluoropyridin-3-yl)-1H-tetrazol-5-yl)methyl)-N-methylcyclohexanamine] | – | – | 16 µM |
| CN(Cc1nnnn1-c1cc(C#N)c(=O)n(C)c1)C1CCCCC1 [Example 48, 5-(5-((cyclohexyl(methyl)amino)methyl)-1H-tetrazol-1-yl)-1-methyl-2-oxo-1,2-dihydropyridine-3-carbonitrile] | – | – | 56 µM |
| CC1CCC(C)N1Cc1nnnn1-c1ccc(Cl)c(C#N)c1 (stereo not drawn) [Example 50, 2-chloro-5-(5-((2,5-dimethylpyrrolidin-1-yl)methyl)-1H-tetrazol-1-yl)benzonitrile] | – | – | 54 µM |
| N#Cc1cc(-n2nnnc2CN(CC(O)c2ccccc2)C2CCCCC2)ccc1Cl (stereo not drawn) [Example 52, 2-chloro-5-(5-((cyclohexyl(2-hydroxy-2-phenylethyl)amino)methyl)-1H-tetrazol-1-yl)benzonitrile] | – | – | 11 µM |
| N#Cc1nc(-n2nnnc2CN(CCCNC(=O)c2ccccc2)C2CCCCC2)ccc1Cl [Example 54, N-(3-(((1-(5-chloro-6-cyanopyridin-2-yl)-1H-tetrazol-5-yl)methyl)(cyclohexyl)amino)propyl)benzamide] | – | – | 70 µM |
| CC(C)N(Cc1nnnn1-c1ccc(Cl)c(C#N)n1)C1CCCCC1 [Example 55, 3-chloro-6-(5-((cyclohexyl(isopropyl)amino)methyl)-1H-tetrazol-1-yl)picolinonitrile] | – | – | 46 µM |
